Test results reported in patent publication US10034886B2, “GLP-1 receptor modulators” (Celgene International II SÀRL, priority 2014, dated 2018).
Like-named read-outs stand apart in the source and are kept apart here.

Target: T1, GLP-1R (Homo sapiens, UniProt P43220)
T1 construct: host or cells: GLP-1R CRE-bla CHO-K1 cells
Experiment: EC20 GLP-1(9-36) PAM cAMP assay: dose response of compound in the presence of fixed concentration of GLP-1(9-36)
Format: cell-based
Settings: GLP-1R CRE-bla CHO-K1 cells, read-out: EC20 GLP-1(9-36) PAM EC50
Protocol: EC20 GLP-1(9-36) PAM cAMP Assay: Dose Response of Compound in the Presence of Fixed Concentration of GLP-1 (9-36).
GLP-1R CRE-bla CHO-K1 cells cultured in growth medium (DMEM-High glucose, 10% dialyzed FBS, 0.1 mM NEAA, 25 mM Hepes, 100 U/mL penicillin/100 μg/mL streptomycin, 5 μg/mL Blasticidin, 600 μg/mL Hygromycin) were trypsinized and plated in suspension into 384 well white flat bottom plates at 5000 cells/well in 12 μL assay buffer (Hanks Balanced Salt solution, 10 mM hepes, 0.1% BSA, pH 7.4). A 5× compound dose response curve (12-point) was generated in assay buffer containing 1.5 mM IBMX, 4% DMSO. GLP-1(9-36) was diluted to 4.2 μM in assay buffer containing 1.5 mM IMBX and 4% DMSO. The 5× compound dose response was added (3 μL), followed by 0.5 μL of GLP-1(9-36) and cells were incubated for 30 min at 37° C. Direct detection of cAMP was carried out using DiscoveRx HitHunter cAMP kit according to manufacturer's instructions and luminescence was read using a SpectraMax M5 plate reader. Luminescence was converted to total cAMP using a cAMP standard curve and data was analyzed by non-linear regression to determine the EC50 and Emax.
GLP-1(7-36): […]-NH2 (SEQ ID NO: 2). GLP-1(9-36): […]-NH2 (SEQ ID NO: 3). GLP-1(7-36) was purchased from GenScript. GLP-1(9-36) was purchased from Biopeptide Co., Inc.
The EC20GLP-1(9-36) PAM Activity range is denoted as follows: + denotes activity <0.8 μM, ++ denotes activity between 0.8 and 2.5 μM, +++ denotes activity between 2.5 and 5 μM, and ++++ denotes activity 5 to 10 μM.

[1] = dose response of compound in presence of fixed concentration of GLP-1(9-36)
[2] = compound dose response with fixed concentration of GLP-1(9-36)

T1 sequence (P43220 24-463): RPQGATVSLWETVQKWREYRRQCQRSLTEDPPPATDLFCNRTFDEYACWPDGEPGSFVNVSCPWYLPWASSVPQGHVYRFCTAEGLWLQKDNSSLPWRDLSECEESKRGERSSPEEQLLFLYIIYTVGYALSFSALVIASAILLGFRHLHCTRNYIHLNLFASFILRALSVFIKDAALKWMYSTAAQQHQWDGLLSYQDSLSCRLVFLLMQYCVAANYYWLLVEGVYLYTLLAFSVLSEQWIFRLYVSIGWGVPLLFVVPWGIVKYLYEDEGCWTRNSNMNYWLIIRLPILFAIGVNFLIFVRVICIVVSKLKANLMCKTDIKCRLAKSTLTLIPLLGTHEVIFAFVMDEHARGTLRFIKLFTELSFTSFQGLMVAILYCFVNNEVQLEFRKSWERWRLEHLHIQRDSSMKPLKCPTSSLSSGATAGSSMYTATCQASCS
T1 sequence (P01275 100-127 partner limits assumed): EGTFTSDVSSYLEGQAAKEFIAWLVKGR

Structure (SMILES): CCCCCCCOc1ccc(-c2cnc(-c3ccc(C[C@H](NC(=O)c4ccc(C(C)(C)C)s4)C(=O)N[C@@H](C(=O)O)C4CC4)cc3)nc2)cc1 [Compound 404]
- EC50 [1]: < 800 nM

Structure (SMILES): CCCCCCCOc1ccc(-c2cnc(-c3ccc(C[C@H](NC(=O)c4ccc(C(C)(C)C)cc4)C(=O)NCC(CC4CCOC4)C(=O)O)cc3)nc2)cc1 (stereo partly drawn) [Compound 560]
- EC50 [1]: 800 to 2500 nM

Structure (SMILES): CCC[C@H]1CC[C@H](C2CCN(c3cnc(-c4ccc(C[C@H](NC(=O)c5cnn(C(C)(C)C)c5)C(=O)N5CC(C(=O)O)C5)cc4)nc3)CC2)CC1 [Compound 1516]
- EC50 [2]: < 800 nM

Structure (SMILES): CCCCCCCOc1ccc(-c2cnc(-c3ccc(C[C@H](NC(=O)c4ccc(C(C)(C)C)cc4)C(=O)NC(C(=O)O)c4c(C)n[nH]c4C)cc3)nc2)cc1 (stereo partly drawn) [Compound 549]
- EC50 [1]: < 800 nM

Structure (SMILES): CCCCCCCCOc1ccc(-c2cnc(-c3ccc(C[C@H](NC(=O)c4ccc(C(C)(C)C)s4)C(=O)N[C@H](C)C(=O)O)cc3)nc2)cc1 [Compound 736]
- EC50 [1]: < 800 nM

Structure (SMILES): CCC[C@H]1CC[C@H](c2ccc(-c3cnc(-c4ccc(C[C@H](NC(=O)c5ccc(C(C)(C)C)s5)C(=O)N[C@H](C)C(=O)O)cc4)nc3)cc2)CC1 [Compound 1265]
- EC50 [2]: < 800 nM

Structure (SMILES): CCCCCCCOc1ccc(-c2cnc(-c3ccc(C[C@H](NC(=O)c4ccc(C(C)(C)C)s4)C(=O)N[C@@H](CC(=O)O)C(=O)NCC(N)=O)cc3)nc2)cc1 [Compound 530]
- EC50 [1]: < 800 nM

Structure (SMILES): CCCCCCCOc1ccc(-c2cnc(-c3ccc(C[C@H](NC(=O)c4ccc(C(C)(C)C)cc4)C(=O)NCCC(=O)O)cc3)nc2)c(Cl)c1 [Compound 701]
- EC50 [1]: 2500 to 5000 nM

Structure (SMILES): CCCCCCCOc1ccc(-c2cnc(-c3ccc(C[C@H](NC(=O)c4ccc(C(C)(C)C)s4)C(=O)N[C@@H](Cc4ccccc4)C(=O)O)cc3)nc2)cc1 [Compound 648]
- EC50 [1]: 800 to 2500 nM

Structure (SMILES): CCCCCCCOc1ccc(-c2ccc(-c3ccc(C[C@H](NC(=O)c4ccc(C(C)(C)C)s4)C(=O)N[C@H](C)C(=O)O)cc3)nc2)cc1 [Compound 811]
- EC50 [1]: 800 to 2500 nM

Structure (SMILES): C[C@@H](NC(=O)[C@H](Cc1ccc(-c2ncc(-c3ccc(Oc4ccccc4F)nc3)cn2)cc1)NC(=O)c1ccc(C(C)(C)C)s1)C(=O)O [Compound 1009]
- EC50 [1]: 2500 to 5000 nM

Structure (SMILES): CCCCCCCOc1ccc(-c2cnc(-c3ccc(C[C@H](NC(=O)c4ccc(C(C)(C)C)cc4)C(=O)N[C@@H](CC(=O)NCCN(C)C)C(=O)O)cc3)nc2)cc1 [Compound 485]
- EC50 [1]: 5000 to 10000 nM

Structure (SMILES): CCCCCCCOc1ccc(-c2cnc(-c3ccc(C[C@H](NC(=O)c4cnc(C(C)(C)C)nc4)C(=O)N4CC[C@H](C(=O)O)C4)cc3)nc2)cc1 [Compound 856]
- EC50 [1]: 800 to 2500 nM

Structure (SMILES): CCC[C@H]1CC[C@H](C2CCN(c3cnc(-c4ccc(C[C@H](NC(=O)c5ccc(C(C)(C)C)s5)C(=O)N[C@H](C)CC(=O)O)cc4)nc3)CC2)CC1 [Compound 1468]
- EC50 [2]: < 800 nM

Structure (SMILES): CCCCCCCOc1ccc(-c2cnc(-c3ccc(C[C@H](NC(=O)c4ccc(CCCC)cc4)C(=O)N[C@H](C)C(=O)O)cc3)nc2)cc1 [Compound 820]
- EC50 [1]: 2500 to 5000 nM

Structure (SMILES): CCCCCCCOc1ccc(-c2cnc(-c3ccc(C[C@H](NC(=O)c4ccc(C(C)(C)C)cc4)C(=O)N4CCC[C@H]4C(=O)O)cc3)nc2)cc1 [Compound 660]
- EC50 [1]: 800 to 2500 nM

Structure (SMILES): CCCCCCCOc1ccc(-c2cnc(-c3ccc(C[C@H](NC(=O)c4ccc(C(C)(C)C)cc4)C(=O)NCCC(=O)O)cc3)nc2)cc1Cl [Compound 702]
- EC50 [1]: 800 to 2500 nM

Structure (SMILES): CC[C@H]1CC[C@H](c2ccc(-c3cnc(-c4ccc(C[C@H](NC(=O)c5cc6cc(OC)ccc6[nH]5)C(=O)N5CC(C(=O)O)C5)cc4)nc3)cc2)CC1 [Compound 1166]
- EC50 [1]: < 800 nM

Structure (SMILES): CCCCCCCOc1ccc(-c2cnc(-c3ccc(C[C@H](NC(=O)c4ccc(C(C)(C)C)cc4)C(=O)NC(C(=O)O)c4ccco4)cc3)nc2)cc1 (stereo partly drawn) [Compound 440]
- EC50 [1]: < 800 nM

Structure (SMILES): CCCCCCCOc1ccc(-c2cnc(-c3ccc(C[C@H](NC(=O)c4ccc(C(C)(C)C)s4)C(=O)NC4CNC4)cc3)nc2)cc1 [Compound 985]
- EC50 [1]: 2500 to 5000 nM

Structure (SMILES): CCc1ccc(C(=O)N[C@@H](Cc2ccc(-c3ncc(-c4ccc(OCCCC(C)C)cc4)cn3)cc2)C(=O)N2CC(C(=O)O)C2)s1 [Compound 1241]
- EC50 [2]: 800 to 2500 nM
